From US20230063457A1, “DNA-PK INHIBITING COMPOUNDS” (Provincial Health Services Authority, priority 2019, published 2023)
pIC50: −log10 of the molar value.

Assays:
[1] = molecular target: DNA-PK kinase (Homo sapiens, UniProt P78527); test: Inhibition of DNA-PK kinase activity (ADP-Glo); assay type: biochemical; details: averaged values over all measurements on all batches; 150 μM ATP, 1 hour at 25° C.
Protocol: Inhibition of DNA-PK Kinase Activity Assay buffer was 50 mM Hepes pH 7.5 containing 0.1 mg/ml BSA (albumin from bovine serum), 50 μM DTT (dithiothreitol), 20 mM MgCl2 and 10 μg/ml calf thymus DNA (activation buffer). Kinase reaction was carried out in OptiPlate 384 plates (PerkinElmer 6007299). All compounds tested were dissolved in dimethyl sulfoxide (DMSO) and further dilutions were made in assay buffer. Final DMSO concentration was 1% (v/v). Pre-incubation consisted of compound (1% DMSO in control and blank wells) and 24 ng/well DNA-PK kinase to allow the compounds to bind the enzyme (with buffer in the blank wells) for 15 minutes; after this time 150 μM Adenosine-5′-triphosphate (ATP) and 0.2 μg/μl DNA-PK substrate were added to commence the kinase reaction. Incubations were carried out for 1 hour at 25° C. Kinase activity was determined by using ADP-Glo™ reagent from Promega according to the manufacturer's instructions. The light generated was measured using a luminometer (EnVision, PerkinElmer). Signal obtained in the wells containing blank samples was subtracted from all other wells and IC50 values were determined by fitting a sigmoidal curve to % inhibition of control versus Log10 compound concentration.

[2] = molecular target: T1, Phospho-DNA-PK in FaDu Cells (Homo sapiens, UniProt P78527); test: Effect of compounds on phospho-DNA-PK in FaDu cells (MesoScale sandwich immunoassay); assay type: cell-based; details: 1 hour pre-incubation, 1 μg/ml Neocarzinostatin 2 hours, averaged values, read-out: MSD FaDu IC50
T1 construct: host or cells: FaDu
Protocol: Effect of Compounds on Phospho-DNA-PK in FaDu Cells
All compounds tested were dissolved in DMSO and further dilutions were made in culture medium. Final DMSO concentration was 0.3% (v/v). The human FaDu cells (ATCC) were cultured in MEM medium supplemented with Glutamax and 10% fetal calf serum (PAA). Cells were routinely maintained at densities of 0.2×10^6 cells per ml at 37° C. in a humidified 5% CO2, 95% air atmosphere. Cells were passaged twice a week, splitting back to obtain the low density. Cells were seeded in 96 well plates (Corning 3904) at 1×10^6 cells per ml media in a volume of 50 μl per well. Seeded cells were incubated at 37° C. in a humidified 5% CO2, 95% air atmosphere for 24 hours. Compounds were added (25 μl) to the cells and pre-incubated for 1 hour. 1 μg/ml DNA-damaging agent Neocarzinostatin (NCS) was added (25 μl) to a final volume of 100 μl and incubated for 2 hours at 37° C. in a humidified 5% CO2, 95% air atmosphere. After this period of time plates were removed from the incubator and the 100 μl dilutions were removed from the wells gently, prior to the addition of 75 μl cold RIPA lysis buffer with protease and phosphatase inhibitors to achieve the cells lysis, followed by shaking on a plate shaker at 4° C. for 30 minutes. At the end of this incubation, lysate was assessed for phospho-DNA-PK levels by sandwich immune-assay carried out in anti-mouse antibody coated MesoScale plates. […] Signal obtained in the wells containing blank samples was subtracted from all other wells and IC50 values were determined by fitting a sigmoidal curve to % inhibition of control versus Logo compound concentration.

With `c1cnnc(NCC2CCN(c3nc(N4CCOCC4)cc4ncccc34)CC2)c1` [Parent compound 131] the pIC50 [1] was 7.20 and the pIC50 [2] was 5.14.

In the case of `Cc1cc(C)nc(NCC2CCN(c3nc(N4CCOCC4)cc4ncccc34)CC2)n1` [Example 117], the pIC50 [1] was 6.90 and the pIC50 [2] was 5.71.

`c1cnc2cc(N3CCOCC3)nc(N3CCC(CNc4ccncn4)CC3)c2c1` [Example 120] was tested, and the pIC50 [1] was 6.85 and the pIC50 [2] was 5.50.

`c1cnc(NCCC2CN(c3nc(N4CCOCC4)cc4ncccc34)C2)nc1` [Example 21] showed a pIC50 [1] of 6.79 and a pIC50 [2] of 5.10.

`CNC(=O)c1ccnc(NCC2CCN(c3nc(N4CCOCC4)cc4ncccc34)CC2)n1` [Example 105] showed a pIC50 [1] of 7.29 and a pIC50 [2] of 5.94.

`Cc1cc(C(N)=O)nc(NCC2CCN(c3nc(N4CCOCC4)cc4ncccc34)CC2)n1` [Example 101] showed a pIC50 [1] of 7.49 and a pIC50 [2] of 5.67.

`NC(=O)[C@H]1CC[C@@H](COc2nc(N3CCOCC3)cc3ncccc23)CC1` [Example 6] was tested, and the pIC50 [1] was 7.13 and the pIC50 [2] was 5.70.

Work on `Brc1cnc2cc(N3CCOCC3)nc(O[C@H]3CC[C@@H](n4ccnc4)CC3)c2c1` [Example 54] yielded a pIC50 [1] of 8.52 and a pIC50 [2] of 6.74.

For `CCCCc1nc2cc(N3CCOCC3)nc(O[C@H]3CC[C@@H](n4cc(F)cn4)CC3)c2cc1O` [Parent compound 175], the pIC50 [1] was 7.74 and the pIC50 [2] was 6.33.

`c1cncc(NCC2CCN(c3nc(N4CCOCC4)cc4ncccc34)CC2)c1` [Example 133] gave a pIC50 [1] of 6.81 and a pIC50 [2] of 4.94.

`F[C@H]1CN(c2ncn[nH]2)CC[C@@H]1Oc1nc(N2CCOCC2)cc2ncccc12` [Example 156] was tested, and the pIC50 [1] was 7.03 and the pIC50 [2] was 6.06.

Work on `Oc1cnc2cc(N3CCOCC3)nc(O[C@H]3CC[C@@H](c4nccs4)CC3)c2c1` [Example 168] yielded a pIC50 [1] of 8.30 and a pIC50 [2] of 6.57.

`c1cnc(NC2CCCCN(c3nc(N4CCOCC4)cc4ncccc34)C2)nc1` (stereo not shown) [Example 20] gave a pIC50 [1] of 6.80 and a pIC50 [2] of 5.05.

`c1cnc2cc(N3CCOCC3)nc(N3CCC(CNc4nnc[nH]4)CC3)c2c1` [Parent compound 153] gave a pIC50 [1] of 7.52 and a pIC50 [2] of 5.60.

Molecule `NC(=O)[C@H]1CC[C@H](COc2nc(N3CCOCC3)cc3ncccc23)CC1` [Example 57] has a pIC50 [1] of 6.92 and a pIC50 [2] of 5.61.

Work on `N#Cc1cccnc1NCC1CCN(c2nc(N3CCOCC3)cc3ncccc23)CC1` [Example 115] yielded a pIC50 [1] of 6.92 and a pIC50 [2] of 5.10.

For `Fc1ccnc(NCC2CCN(c3nc(N4CCOCC4)cc4ncccc34)CC2)c1` [Example 132], the pIC50 [1] was 7.09 and the pIC50 [2] was 4.98.

For `C[C@H]1COCCN1c1cc2ncccc2c(O[C@H]2CC[C@@H](c3nc[nH]n3)CC2)n1` [Example 67], the pIC50 [1] was 7.49 and the pIC50 [2] was 6.05.

`c1cnc(NCCCCOc2nc(N3CCOCC3)cc3ncccc23)nc1` [Example 8] gave a pIC50 [1] of 6.55 and a pIC50 [2] of 5.18.

`c1cnc2cc(N3CCOCC3)nc(O[C@H]3CC[C@@H](c4nnc[nH]4)CC3)c2c1` [Example 71] was tested, and the pIC50 [1] was 8.70 and the pIC50 [2] was 7.21.

For `Cc1nnc([C@H]2CC[C@@H](Oc3nc(N4CCOCC4)cc4ncccc34)CC2)[nH]1` [Example 70], the pIC50 [1] was 9.00 and the pIC50 [2] was 6.95.

`CNC(=O)N1CC(COc2nc(N3CCOCC3)cc3ncccc23)C1` [Example 148] was tested, and the pIC50 [1] was 6.77 and the pIC50 [2] was 5.31.

In the case of `c1cnc(NCC2CN(c3nc(N4CCOCC4)cc4ncccc34)C2)nc1` [Parent compound 98], the pIC50 [1] was 7.44 and the pIC50 [2] was 6.15.

With `COc1ccnc(NCC2CCN(c3nc(N4CCOCC4)cc4ncccc34)CC2)n1` [Example 111] the pIC50 [1] was 7.06 and the pIC50 [2] was 5.67.

For `CC1CN(c2ncn[nH]2)CCC1Oc1nc(N2CCOCC2)cc2ncccc12` (stereo not shown) [Example 157], the pIC50 [1] was 6.80 and the pIC50 [2] was 5.52.

`COc1cnc2cc(N3CCOCC3)nc(O[C@H]3CC[C@@H](n4cc(F)cn4)CC3)c2c1` [Parent compound 170] showed a pIC50 [1] of 8.10 and a pIC50 [2] of 6.63.

In the case of `CC(=O)N1CCN(c2nc(N3CCOCC3)cc3ncccc23)CC1` [Example 84], the pIC50 [1] was 6.73 and the pIC50 [2] was 5.42.

`c1cnc(NC2CCN(c3nc(N4CCOCC4)cc4ncccc34)CC2)nc1` [Example 16] showed a pIC50 [1] of 6.86 and a pIC50 [2] of 4.73.

With `c1cnc(NC2CCCN(c3nc(N4CCOCC4)cc4ncccc34)CC2)nc1` (stereo not shown) [Example 18] the pIC50 [1] was 6.83 and the pIC50 [2] was 5.33.

In the case of `c1cnc(N2CCC(Oc3nc(N4CCOCC4)cc4ncccc34)CC2)nc1` [Example 127], the pIC50 [1] was 6.69 and the pIC50 [2] was 4.86.

For `c1cnc(NCC2CCN(c3nc(N4CCOCC4)cc4ncccc34)C2)nc1` (stereo not shown) [Example 11], the pIC50 [1] was 7.30 and the pIC50 [2] was 5.46.

Molecule `c1cnc(NCCC2CCN(c3nc(N4CCOCC4)cc4ncccc34)CC2)nc1` [Example 130] has a pIC50 [1] of 7.32 and a pIC50 [2] of 5.60.

`Oc1cnc2cc(N3CCOCC3)nc(O[C@H]3CC[C@@H](c4cscn4)CC3)c2c1` [Example 167] showed a pIC50 [1] of 8.40 and a pIC50 [2] of 6.66.

In the case of `Fc1cnn([C@H]2CC[C@@H](Oc3nc(N4CCOCC4)cc4ncccc34)CC2)c1` [Example 78], the pIC50 [1] was 8.40 and the pIC50 [2] was 6.71.

With `c1cnc2cc(N3CCOCC3)nc(O[C@H]3CC[C@@H](n4nccn4)CC3)c2c1` [Example 81] the pIC50 [1] was 8.00 and the pIC50 [2] was 6.29.

For `c1cnc2cc(N3CCOCC3)nc(N3CCC(CNc4cnccn4)CC3)c2c1` [Example 114], the pIC50 [1] was 6.93 and the pIC50 [2] was 5.01.

For `Cc1cnc(NCC2CCN(c3nc(N4CCOCC4)cc4ncccc34)CC2)nc1` [Example 102], the pIC50 [1] was 7.41 and the pIC50 [2] was 6.04.

With `Oc1cnc2cc(N3CCOCC3)nc(O[C@H]3CC[C@@H](c4cccs4)CC3)c2c1` [Example 164] the pIC50 [1] was 7.24 and the pIC50 [2] was 5.43.

`c1cnc2cc(N3CCOCC3)nc(OC3CCN(c4ncn[nH]4)CC3)c2c1` [Example 155] showed a pIC50 [1] of 6.87 and a pIC50 [2] of 5.10.

With `c1cnc2cc(N3CCOCC3)nc(O[C@H]3CC[C@@H](n4ccnc4)CC3)c2c1` [Example 77] the pIC50 [1] was 8.22 and the pIC50 [2] was 6.98.

`CN1CC(CNc2nc(N3CCOCC3)cc3ncccc23)COC1=O` (stereo not shown) [Parent compound 150] was tested, and the pIC50 [1] was 7.18 and the pIC50 [2] was 5.72.

With `c1cnc2cc(N3CCOCC3)nc(OCC3CN(c4ncn[nH]4)C3)c2c1` [Parent compound 151] the pIC50 [1] was 7.09 and the pIC50 [2] was 5.77.

`Cc1noc([C@H]2CC[C@@H](Oc3nc(N4CCOCC4)cc4ncccc34)CC2)n1` [Example 5] was tested, and the pIC50 [1] was 7.68 and the pIC50 [2] was 5.86.

Work on `Fc1c[nH]c([C@H]2CC[C@@H](Oc3nc(N4CCOCC4)cc4ncccc34)CC2)n1` [Example 76] yielded a pIC50 [1] of 7.96 and a pIC50 [2] of 6.84.

Molecule `CS(=O)(=O)N1CCC(Oc2nc(N3CCOCC3)cc3ncccc23)CC1` [Example 143] has a pIC50 [1] of 6.96 and a pIC50 [2] of 5.74.

With `Cc1ccnc(NCC2CCN(c3nc(N4CCOCC4)cc4ncccc34)CC2)c1` [Example 134] the pIC50 [1] was 6.81.

`c1ccc(NCC2CCN(c3nc(N4CCOCC4)cc4ncccc34)CC2)cc1` [Example 138] was tested, and the pIC50 [1] was 6.30.

`c1cnc(N2CC3CN(c4nc(N5CCOCC5)cc5ncccc45)CC3C2)nc1` (stereo not shown) [Example 28] was tested, and the pIC50 [1] was 6.47.

`N#Cc1cc(Br)cnc1NCC1CCN(c2nc(N3CCOCC3)cc3ncccc23)CC1` [Example 125] was tested, and the pIC50 [1] was 6.30.

In the case of `CN(C)CC1CCN(c2nc(N3CCOCC3)cc3ncccc23)CC1` [Parent compound 145], the pIC50 [1] was 5.46.

`c1cnc(N2CCC23CCN(c2nc(N4CCOCC4)cc4ncccc24)C3)nc1` (stereo not shown) [Example 29] showed a pIC50 [1] of 6.46.

Molecule `c1cnc2cc(N3CCOCC3)nc(N3CCNCC3)c2c1` [Example 95] has a pIC50 [1] of 5.26.

`CC(C)(C)OC(=O)N1CCC2CN(c3nc(N4CCOCC4)cc4ncccc34)CC21` (stereo not shown) [Example 37] was tested, and the pIC50 [1] was 5.89.

`Oc1cnc2c(Cl)c(N3CCOCC3)nc(O[C@H]3CC[C@@H](n4ccnc4)CC3)c2c1` [Parent compound 172] gave a pIC50 [1] of 6.62.

`c1cnc2cc(N3CCOCC3)nc(OC3CCCCC3)c2c1` [Example 9] was tested, and the pIC50 [1] was 6.33.

With `CC(C)(C)OC(=O)NCC1CCN(c2nc(N3CCOCC3)cc3ncccc23)CC1` [Example 33] the pIC50 [1] was 6.27.

For `O=S(=O)(NCC1CCN(c2nc(N3CCOCC3)cc3ncccc23)CC1)c1ccc(F)cc1` [Example 142], the pIC50 [1] was 6.09.

Molecule `c1cnc(NCC2CCCN(c3nc(N4CCOCC4)cc4ncccc34)C2)nc1` (stereo not shown) [Example 36] has a pIC50 [1] of 6.02.
